Some results are limits rather than exact numbers.

In this assay the target is T1, EBP (Homo sapiens, UniProt Q15125).
T1 construct: HEK293T cells were utilized as the source of EBP enzyme; endogenous in cells; host or cells: HEK293T
T1 sequence (Q15125 whole entry): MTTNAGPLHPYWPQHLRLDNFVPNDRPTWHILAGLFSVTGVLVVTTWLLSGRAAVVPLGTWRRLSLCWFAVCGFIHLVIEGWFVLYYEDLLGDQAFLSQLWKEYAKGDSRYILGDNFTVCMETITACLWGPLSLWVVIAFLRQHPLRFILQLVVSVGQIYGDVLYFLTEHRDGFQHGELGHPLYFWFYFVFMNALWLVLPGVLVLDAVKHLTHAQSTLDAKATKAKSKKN
Put plainly: EBP Functional Assay (EBP immunoaffinity LC-MS assay). Conditions: EBP enzyme from HEK293T cells; 30 min with inhibitor, then zymosterol-d5, 37° C., 4 h; percent conversion to dehydrolathosterol-d5 by LC-APCI MRM MS. In kind it is biochemical. Here is the method:
The EBP immunoaffinity (IA) LC-MS assay measures the potency of small molecule inhibitors of EBP by quantifying their concentration-dependent changes in the enzyme's substrate and product using liquid chromatography atmospheric pressure chemical ionization multiple reaction monitoring mass spectrometry (LC-APCI MRM MS). HEK293T cells were utilized as the source of EBP enzyme. The enzyme was incubated with the small molecule inhibitors at variable concentrations for 30 min. Deuterated form of EBP substrate, zymosterol-d5 (Avanti Polar Lipids, Cat #700068P-1 mg), was then added and the plate was incubated at 37° C. for 4 h. Finally, the sterol isomers were extracted and injected to LC-APCI MRM MS. MRM transition used for the quantification for both zymosterol and […] (substrate and product of EBP enzymatic reaction, respectively) is 372.3-203.2, CE 30 and DP 80 in positive ion mode. Percent conversion of the zymosterol-d5 to dehydrolathosterol-d5 was used to derive IC50 curves. Tasin-1 (1′-[(4-Methoxyphenyl)sulfonyl]-4-methyl-1,4′-bipiperidine, CAS 792927-06-1) was used as the reference small molecule inhibitor.
Percent conversion versus the compound concentration data were fit to the following 4-parameter logistic model to generate IC50 curves: […]
One may read the IC50 as the concentration needed to halve the response being measured. High values mean weaker potency, low ones greater potency. Molecule “4-((6-((2-methyl-6-(trifluoromethyl)pyridin-3-yl)sulfonyl)-2,6-diazaspiro[3.3]heptan-2-yl)methyl)tetrahydro-2H-pyran-4-ol [Example 75]” came in with an IC50 of 250 to 4000 nM.

Turning to `Cc1nc(C(F)(F)F)ccc1S(=O)(=O)N1CC2(CN(C(C)C3CCOC3)C2)C1` (mixture of isomers) [Example 130], the IC50 was < 100 nM.

For `Cc1nc(C(F)(F)F)ccc1S(=O)(=O)N1CC2(CN(C(C)C3(C)CCCO3)C2)C1` (mixture of isomers) [Example 135], the half-inhibitory concentration (IC50) was < 100 nM.

`Cc1nc(C(F)(F)F)ccc1S(=O)(=O)N1CC2(CN(C(C)C3CCCO3)C2)C1` (mixture of isomers) [Example 138]: the IC50 was < 100 nM.

`O=S(=O)(c1ccc(OC(F)F)cc1)N1CCOC2(CCN(C3CCOCC3)C2)C1` (racemic) [Example 2, 9-((4-(Difluoromethoxy)phenyl)sulfonyl)-2-(tetrahydro-2H-pyran-4-yl)-6-oxa-2,9-diazaspiro[4.5]decane] showed an IC50 of 100 to 250 nM.

As to `O=S(=O)(c1ccc(OC(F)F)cc1)N1CCOC2(CCN(C3CCOC3)CC2)C1` (racemic) [Example 6, 4-((4-(Difluoromethoxy)phenyl)sulfonyl)-9-(tetrahydrofuran-3-yl)-1-oxa-4,9-diazaspiro[5.5]undecane], the IC50 was 250 to 4000 nM.

As to `O=S(=O)(c1ccc(OC(F)F)cc1)N1CCO[C@@]2(CCN([C@H]3CCCOC3)C2)C1` (racemic) [Example 8, (±)—(R)-9-((4-(Difluoromethoxy)phenyl)sulfonyl)-2-((S)-tetrahydro-2H-pyran-3-yl)-6-oxa-2,9-diazaspiro[4.5]decane], the IC50 lay within 250 to 4000 nM.

Molecule `O=S(=O)(c1ccc(OC(F)F)cc1)N1CCO[C@@]2(CCN([C@@H]3CCCOC3)C2)C1` (racemic) [Example 9, (±)—(R)-9-((4-(Difluoromethoxy)phenyl)sulfonyl)-2-((R)-tetrahydro-2H-pyran-3-yl)-6-oxa-2,9-diazaspiro[4.5]decane] showed an IC50 of 250 to 4000 nM.

As to `O=S(=O)(c1ccc(OC(F)F)cc1)N1CCOC2(CCN(C3CC4(COC4)C3)C2)C1` (racemic) [Example 25, 9-((4-(Difluoromethoxy)phenyl)sulfonyl)-2-(2-oxaspiro[3.3]heptan-6-yl)-6-oxa-2,9-diazaspiro[4.5]decane], the IC50 was < 100 nM.

The molecule `Cc1nc(C(F)(F)F)ccc1S(=O)(=O)N1CC2(CN(C3CC4(CCO4)C3)C2)C1` (racemic) [Example 69, rac-2-((2-methyl-6-(trifluoromethyl)pyridin-3-yl)sulfonyl)-6-(1-oxaspiro[3.3]heptan-6-yl)-2,6-diazaspiro[3.3]heptane] showed an IC50 of 250 to 4000 nM.

In turn, `Cc1cc(C(F)(F)F)nc(C)c1S(=O)(=O)N1CC2(CN(CC3CCOC3)C2)C1` (racemic) [Example 103] showed an IC50 of 100 to 250 nM.

Take `Cc1nc(C(F)(F)F)ccc1S(=O)(=O)N1CC2(CN(C(C)C3CCOCC3)C2)C1` (racemic) [Example 153, rac-2-((2-methyl-6-(trifluoromethyl)pyridin-3-yl)sulfonyl)-6-(1-(tetrahydro-2H-pyran-4-yl)ethyl)-2,6-diazaspiro[3.3]heptane]: the IC50 is < 100 nM.

For the molecule `Cc1nc(C(F)(F)F)ccc1S(=O)(=O)N1CC2(CN(C(C)C3COC3)C2)C1` (racemic) [Example 155, rac-2-((2-methyl-6-(trifluoromethyl)pyridin-3-yl)sulfonyl)-6-(1-(oxetan-3-yl)ethyl)-2,6-diazaspiro[3.3]heptane], the IC50 is < 100 nM.

For the molecule `Cc1nc(C(F)(F)F)ccc1S(=O)(=O)N1CC2(CN(C(C)C34COC(C)(C3)C4)C2)C1` (racemic) [Example 167, rac-2-(1-(1-methyl-2-oxabicyclo[2.1.1]hexan-4-yl)ethyl)-6-((2-methyl-6-(trifluoromethyl)pyridin-3-yl)sulfonyl)-2,6-diazaspiro[3.3]heptane], the IC50 was < 100 nM.

The molecule `Cc1nc(C(F)(F)F)ccc1S(=O)(=O)N1CC2(CN(CC[C@@H]3COC(C)(C)O3)C2)C1` (racemic) [Example 173] gave an IC50 of 100 to 250 nM.

`Cc1nc(C(F)(F)F)ccc1S(=O)(=O)N1CC2(CN(C[C@H]3[C@H](C#N)C3(C)C)C2)C1` (racemic) [Example 174] had an IC50 of 100 to 250 nM.

With `Cc1nc(C(F)(F)F)ccc1S(=O)(=O)N1CC2(CN(C[C@@H]3CC[C@H]4C[C@H]3CO4)C2)C1` (racemic) [Example 175], the IC50 was < 100 nM.

Turning to `Cn1nc(C(F)(F)F)cc1S(=O)(=O)N1CC2(CN(CC3CCOC3)C2)C1` (racemic) [Example 197, rac-2-((1-Methyl-3-(trifluoromethyl)-1H-pyrazol-5-yl)sulfonyl)-6-((tetrahydrofuran-3-yl)methyl)-2,6-diazaspiro[3.3]heptane], the IC50 is < 100 nM.

Take `Cn1nc(C(F)(F)F)cc1S(=O)(=O)N1CC2(CN(CC3CCOC(C)(C)C3)C2)C1` (racemic) [Example 198, rac-2-((2,2-dimethyltetrahydro-2H-pyran-4-yl)methyl)-6-((1-methyl-3-(trifluoromethyl)-1H-pyrazol-5-yl)sulfonyl)-2,6-diazaspiro[3.3]heptane]: the IC50 was < 100 nM.

As for `CC(C1CCOCC1)N1CC2(C1)CN(S(=O)(=O)c1cc(C(F)(F)F)nn1C)C2` (racemic) [Example 212, rac-2-((1-methyl-3-(trifluoromethyl)-1H-pyrazol-5-yl)sulfonyl)-6-(1-(tetrahydro-2H-pyran-4-yl)ethyl)-2,6-diazaspiro[3.3]heptane], the IC50 is < 100 nM.

The molecule `Cn1nc(C(F)(F)F)cc1S(=O)(=O)N1CC2(CN(CC3COCCO3)C2)C1` (racemic) [Example 215, rac-2-((1,4-dioxan-2-yl)methyl)-6-((1-methyl-3-(trifluoromethyl)-1H-pyrazol-5-yl)sulfonyl)-2,6-diazaspiro[3.3]heptane] had an IC50 of 250 to 4000 nM.

As to `Cc1nc(C(F)(F)F)ccc1S(=O)(=O)N1CC2(CN(CC3COCCO3)C2)C1` (racemic) [Example 216, rac-2-((1,4-dioxan-2-yl)methyl)-6-((2-methyl-6-(trifluoromethyl)pyridin-3-yl)sulfonyl)-2,6-diazaspiro[3.3]heptane], the IC50 is 250 to 4000 nM.

Molecule `O=S(=O)(c1ccc(OC(F)F)cc1)N1CCO[C@]2(CCN(C3CCOCC3)C2)C1` (single isomer, unassigned) [Example 3] returned an IC50 of 100 to 250 nM.

Take `O=S(=O)(c1ccc(OC(F)F)cc1)N1CCO[C@@]2(CCN(C3CCOCC3)C2)C1` (single isomer, unassigned) [Example 4]: the IC50 was < 100 nM.

`O=S(=O)(c1cc(F)cc(F)c1)N1CCO[C@]2(CCN(C3CCOCC3)C2)C1` (single isomer, unassigned) [Example 14]: the IC50 is < 100 nM.

In the case of `O=S(=O)(c1cc(F)cc(F)c1)N1CCO[C@@]2(CCN(C3CCOCC3)C2)C1` (single isomer, unassigned) [Example 15], the 50% inhibitory concentration (IC50) lay in the range of 100 to 250 nM.

In turn, `O=S(=O)(c1ccc(OC(F)F)cc1)N1CCO[C@@]2(CCN(C3CC4(COC4)C3)C2)C1` (single isomer, unassigned) [Example 26] returned an IC50 of 100 to 250 nM.

`O=S(=O)(c1ccc(OC(F)F)cc1)N1CCO[C@]2(CCN(C3CC4(COC4)C3)C2)C1` (single isomer, unassigned) [Example 27] showed an IC50 of 100 to 250 nM.

Source of the values: patent US20250171463A1 (BIOGEN MA INC., priority 2022, published 2025).
